Patent US10682413B2, “Pharmaceutical forms of diazabicyclooctane derivatives and process for producing the same” (Fedora Pharmaceuticals Inc., priority 2017, dated 2020)

Test: Decomposition of Compound (I) in aqueous solutions
Assay type: physicochemical
Description: The present application is directed to a pharmaceutical composition of Compound (I) suitable for parenteral administration. […] Applicant discovered a lyophilisate formulation comprising a sugar and Compound (I) to afford an amorphous lyophilisate suitable for intravenous administration.

In the case of `NCCONC(=O)[C@@H]1CC[C@@H]2CN1C(=O)N2OS(=O)(=O)O` [Compound (I), (2S, 5R)—N-(2-aminoethoxy)-7-oxo-6-(sulfooxy)-1,6-diazabicyclo[3.2.1]octane-2-carboxamide], the “stability in aqueous solutions” value is reported as “undergoes decomposition and dimerization in aqueous solutions”.
